Structures can show the parent of a compound that is named as a salt.

Usually inhibition stands for the relative decrease from the control value, in per cent.

This experiment has as its target T1, mouse glycolate oxidase (mGO) (Mus musculus, UniProt Q9WU19).
T1 construct: His6 (N); made in house; host or cells: E. coli BL21 (DE3)
T1 sequence (Q9WU19 1-370): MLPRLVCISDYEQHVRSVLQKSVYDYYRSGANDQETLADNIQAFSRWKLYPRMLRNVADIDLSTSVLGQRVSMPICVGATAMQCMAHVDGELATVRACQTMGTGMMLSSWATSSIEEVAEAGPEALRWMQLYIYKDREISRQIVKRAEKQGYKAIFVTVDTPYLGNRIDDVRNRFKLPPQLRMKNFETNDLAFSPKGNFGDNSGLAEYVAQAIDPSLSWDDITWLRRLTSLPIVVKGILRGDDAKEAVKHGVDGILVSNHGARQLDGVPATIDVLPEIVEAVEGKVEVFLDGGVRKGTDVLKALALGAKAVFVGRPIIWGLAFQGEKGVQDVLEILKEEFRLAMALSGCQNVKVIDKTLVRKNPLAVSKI
In words: In vitro inhibition of mouse glycolate oxidase (mGO), HRP-coupled Trinder reaction. The class given is biochemical. The following applies: compound tested at 100 μM; 40 mM glycolic acid as substrate; activity calculated at 1 minute. On the procedure:
Protein expression. BL21 (DE3) E. coli transformed with recombinant pET-15b expression vector containing mouse Hao1 cDNA with an N-terminal His6 tag was grown in LB medium in the presence of 0.1 mg/mL ampicillin. For purification of recombinant mGO expressed in BL21 E. coli, bacteria pellets were thawed and re-suspended in 2 mL lysis buffer (50 mM NaH2PO4, 300 mM NaCl, 10 mM imidazole, 50 μM flavin mononucleotide (FMN), pH 7.5), and then treated for 30 minutes with 1 mM phenylmethylsulfonyl fluoride (PMSF) for protease inhibition, 0.1% Triton X-100 and 0.2 mg/mL lysozyme to break cellular membranes. After sonication, cells were centrifuged and the supernatant containing the total cellular extract (pre-column fraction) was loaded into a Ni-NTA agarose column, and incubated for 30 minutes at 4° C. to allow binding. The column was washed with two bed volumes of lysis buffer with 20 mM imidazole to eliminate unbound proteins (wash fraction). mGO was eluted using the same buffer containing 300 mM imidazole. Fractions containing purified GO were dialyzed against 300 mL of dialysis buffer (50 mM NaH2PO4, 300 mM NaCl, pH 7.5) at 4° C. with agitation overnight, and then kept at 4° C. in darkness. Protein was quantified by the bicinchoninic acid (BCA) assay.
Inhibition assays. Enzymatic activity of mGO was determined in the presence of glycolate as substrate (40 mM glycolic acid) and phosphate buffer (50 mM KPO4, 0.1 mM EDTA, pH 7). The production of glyoxylate was indirectly measured by the quantification of hydrogen peroxide formed during the first oxidation reaction. This hydrogen peroxide reacted with 4.9 mM 4-aminoantipyrine and 0.1 mM sulphonated […] in a coupled horseradish peroxidase (HRP) reaction that yields a quinoneimine dye (FIG. 1) measured at 515 nm (Trinder reaction). Enzymatic activity was calculated at 1 minute after initiation of the Trinder reaction.
With `Cc1onc(C(=O)O)c1Cc1ccc(-c2ccc(C#N)cc2)cc1` [Compound 1, 4-((4′-Cyano-[1, 1′-biphenyl]-4-yl)methyl)-5-methylisoxazole-3-carboxylic Acid], the inhibition at 100 µM was 30 to 60%. Take `COc1ccc(CN(c2ccc(CCc3ccc(F)cc3)cc2)c2c(C(=O)O)n[nH]c2C)cc1` [Compound 67, 4-((4-(4-Fluorophenethyl)phenyl)(4-methoxybenzyl)amino)-3-methyl-1H-pyrazole-5-carboxylic Acid]: the inhibition at 100 µM was greater than 60%. As to `O=C(O)c1nnsc1Nc1ccc(F)cc1` [Compound 22, 5-((4-Fluorophenyl)amino)-1,2,3-thiadiazole-4-carboxylic Acid], the inhibition at 100 µM was greater than 60%. In the case of `Cc1[nH]nc(C(=O)O)c1Nc1cccc(-c2ccc(C#N)cc2)c1` [Compound 42, 4-((4′-Cyano-[1,1′-biphenyl]-3-yl)amino)-5-methyl-1H-pyrazole-3-carboxylic Acid], the inhibition at 100 µM is 30 to 60%. As for `CCCCCC(Sc1ccnnc1C(=O)O)c1ccc(F)cc1` (stereo not shown) [Compound 77, 4-((1-(4-Fluorophenyl)hexyl)thio)pyridazine-3-carboxylic Acid], the inhibition at 100 µM was 30 to 60%.

Consider `CC(C)(C)OC(=O)N1CC(OCCOc2ccc(Cc3ccc(Nc4ccnnc4C(=O)O)cc3)cc2)C1` [Compound 68 Na salt, 4-((4-(4-(2-((1-(tert-butoxycarbonyl)azetidin-3-yl)oxy)ethoxy)benzyl)phenyl)amino)pyridazine-3-carboxylic Acid sodium Salt], for which the inhibition at 100 µM is greater than 60%. Turning to `Cc1onc(C(=O)O)c1Cc1ccc(Oc2ccccc2)cc1` [Compound 6, 5-Methyl-4-(4-phenoxybenzyl) isoxazole-3-carboxylic Acid], the inhibition at 100 µM is 30 to 60%. In the case of `Cc1snc(C(=O)O)c1Nc1ccc(-c2ccc(C#N)cc2)cc1` [Compound 33, 4-((4′-Cyano-[1,1′-biphenyl]-4-yl)amino)-5-methylisothiazole-3-carboxylic Acid], the inhibition at 100 µM is greater than 60%. On to `O=C(O)c1nnsc1Cc1ccc(Br)cc1` [Compound 15, 5-(4-Bromobenzyl)-1,2,3-thiadiazole-4-carboxylic Acid], for which the inhibition at 100 µM is greater than 60%.

On to `Cc1[nH]nc(C(=O)O)c1Nc1ccc(CCc2ccc(F)cc2)cc1` [Compound 66, 4-((4-(4-Fluorophenethyl)phenyl)amino)-3-methyl-1H-pyrazole-5-carboxylic Acid], for which the inhibition at 100 µM was less than 30%. Consider `Cc1onc(C(=O)O)c1Nc1ccc(Cc2ccc(F)cc2)cc1` [Compound 54, 4-((4-(4-fluorobenzyl)phenyl)amino)-5-methylisoxazole-3-carboxylic Acid], for which the inhibition at 100 µM is less than 30%. In the case of `Cc1snc(C(=O)O)c1Nc1cccc(-c2ccc(C#N)cc2)c1` [Compound 36, 4-((4′-Cyano-[1,1′-biphenyl]-3-yl)amino)-5-methylisothiazole-3-carboxylic Acid], the inhibition at 100 µM was 30 to 60%. Take `Cc1snc(C(=O)O)c1NCc1ccc(F)cc1` [Compound 37, 4-((4-Fluorobenzyl)amino)-5-methylisothiazole-3-carboxylic Acid]: the inhibition at 100 µM is 30 to 60%. As to `O=C(O)c1nnccc1SCc1ccccc1` [Compound 76, 4-(Benzylthio)pyridazine-3-carboxylic Acid], the inhibition at 100 µM was less than 30%. Regarding `Cc1onc(C(=O)O)c1Sc1ccc(F)cc1` [Compound 46, 4-((4-Fluorophenyl)thio)-5-methylisoxazole-3-carboxylic Acid], the inhibition at 100 µM is 30 to 60%.

For the compound `Cc1onc(C(=O)O)c1Nc1ccc(Oc2ccc(C#N)cc2)cc1` [Compound 53, 4-((4-(4-cyanophenoxy)phenyl)amino)-5-methylisoxazole-3-carboxylic Acid], the inhibition at 100 µM was 30 to 60%. Turning to `Cc1[nH]nc(C(=O)O)c1Cc1ccc(Br)cc1` [Compound 8, 4-(4-Bromobenzyl)-5-methyl-1H-pyrazole-3-carboxylic Acid], the inhibition at 100 µM is less than 30%.

Regarding `Cc1n[nH]c(C(=O)O)c1N(Cc1ccc(F)cc1)Cc1ccc(F)cc1` [Compound 44, 4-(bis(4-Fluorobenzyl)amino)-3-methyl-1H-pyrazole-5-carboxylic Acid], the inhibition at 100 µM is 30 to 60%. Take `Cc1[nH]nc(C(=O)O)c1Nc1ccc(Br)cc1` [Compound 40, 4-((4-Bromophenyl)amino)-5-methyl-1H-pyrazole-3-carboxylic Acid]: the inhibition at 100 µM was less than 30%. Consider `O=C(O)c1nnsc1Nc1ccc(Br)cc1` [Compound 24, 5-((4-Bromophenyl)amino)-1,2,3-thiadiazole-4-carboxylic Acid], for which the inhibition at 100 µM was greater than 60%. Take `O=C(O)c1nnccc1Cc1ccc(F)cc1` [Compound 19, 4-(4-Fluorobenzyl) pyridazine-3-carboxylic Acid]: the inhibition at 100 µM is 30 to 60%. On to `N#Cc1ccc(-c2ccc(Cc3snnc3C(=O)O)cc2)cc1` [Compound 14, 5-((4′-Cyano-[1,1′-biphenyl]-4-yl)methyl)-1,2,3-thiadiazole-4-carboxylic Acid], for which the inhibition at 100 µM is 30 to 60%. To `Cc1snc(C(=O)O)c1Nc1cccc(Br)c1` [Compound 35, 4-((3-Bromophenyl)amino)-5-methylisothiazole-3-carboxylic Acid] belongs 30 to 60%. With `Cc1[nH]nc(C(=O)O)c1Nc1ccc(C#N)cc1` [Compound 45, 4-((4-Cyanophenyl)amino)-5-methyl-1H-pyrazole-3-carboxylic Acid], the inhibition at 100 µM was 30 to 60%. Regarding `Cc1[nH]nc(C(=O)O)c1Nc1cccc(Br)c1` [Compound 41, 4-((3-Bromophenyl)amino)-5-methyl-1H-pyrazole-3-carboxylic Acid], the inhibition at 100 µM was 30 to 60%. For the compound `Cc1[nH]nc(C(=O)O)c1Nc1ccc(-c2ccc(C#N)cc2)cc1` [Compound 39, 4-((4′-Cyano-[1,1′-biphenyl]-4-yl)amino)-5-methyl-H-pyrazole-3-carboxylic Acid], the inhibition at 100 µM was 30 to 60%. To `Cc1onc(C(=O)O)c1Cc1ccc(Br)cc1` [Compound 2, 4-(4-Bromobenzyl)-5-methylisoxazole-3-carboxylic Acid] belongs less than 30%; to `Cc1[nH]nc(C(=O)O)c1Nc1ccc(Cc2ccc(OCCOC3CN(C(=O)OC(C)(C)C)C3)cc2)cc1` [Compound 59, 4-((4-(4-(2-((1-(tert-butoxycarbonyl)azetidin-3-yl)oxy)ethoxy)benzyl)phenyl)amino)-5-methyl-1H-pyrazole-3-carboxylic Acid], less than 30%.
